Reference: US20240246964A1 (Arbutus Biopharma Corporation, priority 2021, published 2024)

These molecules were tested against human PD-L1 (Homo sapiens (Human), UniProt Q9NZQ7) (assay: T cell activation luciferase reporter cell culture system (T Cell Activation Assay)). Settings: luciferase reporter assay; PD-L1 aAPC/CHO-K1 cells with PD-1 effector Jurkat T cells.
Type: cell-based

Sequence of human PD-L1 (Q9NZQ7 19-290): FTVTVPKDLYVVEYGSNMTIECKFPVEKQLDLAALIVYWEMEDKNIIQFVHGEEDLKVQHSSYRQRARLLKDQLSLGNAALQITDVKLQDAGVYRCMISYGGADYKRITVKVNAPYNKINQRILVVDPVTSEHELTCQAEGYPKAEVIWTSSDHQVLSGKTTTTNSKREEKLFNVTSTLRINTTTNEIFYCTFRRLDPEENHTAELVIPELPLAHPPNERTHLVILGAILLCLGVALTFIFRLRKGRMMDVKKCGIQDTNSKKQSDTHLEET

| Compound | EC50 |
| --- | --- |
| COc1cc(-c2ncnc(-c3cccc(-c4ccc(CN5CC6(CNC(=O)C6)C5)c(OC)n4)c3Cl)c2C)ccc1CN1CC2(CNC(=O)C2)C1 [Example 535, 2-((6-(2-Chloro-3-(6-(3-methoxy-4-((7-oxo-2,6-diazaspiro[3.4]octan-2-yl)methyl)phenyl)-5-methylpyrimidin-4-yl)phenyl)-2-methoxypyridin-3-yl)methyl)-2,6-diazaspiro[3.4]octan-7-one] | 1.06 µM |
| COc1nc(-c2cccc(-c3ccnc(-c4cc(OC)c5nc(CN6CC(C(=O)O)C6)nn5c4)c3Cl)c2Cl)ccc1CNC[C@@H]1CCC(=O)N1 [Example 261, (S)-1-((6-(3-Chloro-4-(2-chloro-3-(6-methoxy-5-((((5-oxopyrrolidin-2-yl)methyl)amino)methyl)pyridin-2-yl)phenyl)pyridin-2-yl)-8-methoxy-[1,2,4]triazolo[1,5-a]pyridin-2-yl)methyl)azetidine-3-carboxylic acid] | 0.126 µM |
| COc1nc(-c2cccc(-c3ccnc(-c4cc(F)c5c(c4)CCN(CCCF)C5)c3Cl)c2Cl)ccc1CNC[C@@H]1CCC(=O)N1 [Cmpd 65, (S)-5-((((6-(2-chloro-3-(3-chloro-2-(8-fluoro-2-(3-fluoropropyl)-1,2,3,4-tetrahydroisoquinolin-6-yl)pyridin-4-yl)phenyl)-2-methoxypyridin-3-yl)methyl)amino)methyl)pyrrolidin-2-one] | 0.194 µM |
| COc1cc(-c2ncnc(-c3cccc(-c4ccc(CN5CC6(CCC(=O)N6)C5)c(OC)n4)c3Cl)c2OC)ccc1CN1CC2(CCC(=O)N2)C1 [Example 743, 2-((6-(2-Chloro-3-(5-methoxy-6-(3-methoxy-4-((6-oxo-2,5-diazaspiro[3.4]octan-2-yl)methyl)phenyl)pyrimidin-4-yl)phenyl)-2-methoxypyridin-3-yl)methyl)-2,5-diazaspiro[3.4]octan-6-one] | ≥ 10 µM |
| CNCc1ccc(-c2nccc(-c3cccc(-c4ccc(CNC)c(OC)n4)c3Cl)c2C)cc1OC [Example 334, 1-(6-(2-Chloro-3-(2-(3-methoxy-4-((methylamino)methyl)phenyl)-3-methylpyridin-4-yl)phenyl)-2-methoxypyridin-3-yl)-N-methylmethanamine] | 0.0385 µM |
| COc1nc(-c2cccc(-c3ccnc(-c4cc(OC)c5nc(CNCCC6(C(=O)O)CC6)nn5c4)c3Cl)c2Cl)ccc1CNC[C@@H]1CCC(=O)N1 [Example 262, (S)-1-(2-(((6-(3-Chloro-4-(2-chloro-3-(6-methoxy-5-((((5-oxopyrrolidin-2-yl)methyl)amino)methyl)pyridin-2-yl)phenyl)pyridin-2-yl)-8-methoxy-[1,2,4]triazolo[1,5-a]pyridin-2-yl)methyl)amino)ethyl)cyclopropane-1-carboxylic acid] | 0.0828 µM |
| COc1nc(-c2nccc(-c3cccc(NC(=O)c4cn(C)c(=O)n(C)c4=O)c3Cl)c2Cl)ccc1CNC[C@H](C)O [Example 739, (S)—N-(2-Chloro-3-(3-chloro-5′-(((2-hydroxypropyl)amino)methyl)-6′-methoxy-[2,2′-bipyridin]-4-yl)phenyl)-1,3-dimethyl-2,4-dioxo-1,2,3,4-tetrahydropyrimidine-5-carboxamide] | 1.85 µM |
| COc1cc(-c2nccc(-c3cccc(-c4ccc(CNC5CCOCC5)c(OC)n4)c3Cl)c2Cl)ccc1CN1CC2(C1)CN(C(C)=O)C2 [Example 492, 1-(6-(4-(3-chloro-4-(2-chloro-3-(6-methoxy-5-(((tetrahydro-2H-pyran-4-yl)amino)methyl)pyridin-2-yl)phenyl)pyridin-2-yl)-2-methoxybenzyl)-2,6-diazaspiro[3.3]heptan-2-yl)ethan-1-one] | 0.0185 µM |
| COc1cc(-c2ncnc(-c3cccc(-c4ccc(CN[C@H]5C[C@@H](O)C5)c(OC)n4)c3Cl)c2Cl)ccc1CN1CC2(CNC(=O)C2)C1 [Example 737, 2-(4-(5-Chloro-6-(2-chloro-3-(5-((((1s,3s)-3-hydroxycyclobutyl)amino)methyl)-6-methoxypyridin-2-yl)phenyl)pyrimidin-4-yl)-2-methoxybenzyl)-2,6-diazaspiro[3.4]octan-7-one] | 0.109 µM |
| COc1cc(-c2nccc(-c3cccc(NC(=O)c4ccc(CN5CC6(CNC(=O)C6)C5)cn4)c3C)c2Cl)ccc1CN1CC2(CNC(=O)C2)C1 [Example 590, N-(3-(3-Chloro-2-(3-methoxy-4-((7-oxo-2,6-diazaspiro[3.4]octan-2-yl)methyl)phenyl)pyridin-4-yl)-2-methylphenyl)-5-((7-oxo-2,6-diazaspiro[3.4]octan-2-yl)methyl)picolinamide] | 1.2 µM |
| COc1cc(-c2nccc(-c3cccc(-c4ccc(CNC[C@@H]5CCC(=O)N5)c(OC)n4)c3Cl)c2Cl)cc2c1CN(CCC1CCNCC1)CC2 [Cmpd 64, (S)-5-((((6-(2-chloro-3-(3-chloro-2-(8-methoxy-2-(2-(piperidin-4-yl)ethyl)-1,2,3,4-tetrahydroisoquinolin-6-yl)pyridin-4-yl)phenyl)-2-methoxypyridin-3-yl)methyl)amino)methyl)pyrrolidin-2-one] | 0.0719 µM |
| COc1nc(-c2cccc(-c3ccnc(-c4cc(OC)c5nc(CNCCC6(C(=O)O)CC6)cn5c4)c3Cl)c2Cl)ccc1CNC[C@@H]1CCC(=O)N1 [Example 351, (S)-1-(2-(((6-(3-Chloro-4-(2-chloro-3-(6-methoxy-5-((((5-oxopyrrolidin-2-yl)methyl)amino)methyl)pyridin-2-yl)phenyl)pyridin-2-yl)-8-methoxyimidazo[1,2-a]pyridin-2-yl)methyl)amino)ethyl)cyclopropane-1-carboxylic acid] | 0.146 µM |
| COc1cc(-c2nccc(-c3cccc(-c4ccc(CNCC5(CO)CC5)c(OC)n4)c3Cl)c2Cl)cc2c1CN(CCCF)CC2 [Example 252, (1-((((6-(2-Chloro-3-(3-chloro-2-(2-(3-fluoropropyl)-8-methoxy-1,2,3,4-tetrahydroisoquinolin-6-yl)pyridin-4-yl)phenyl)-2-methoxypyridin-3-yl)methyl)amino)methyl)cyclopropyl)methanol] | 0.0541 µM |
| COc1cc(-c2nccc(-c3cccc(-c4ccc5c(CNC6CCN(C(C)=O)CC6)cn(C)c5n4)c3Cl)c2Cl)ccc1CNC1CCN(C(C)=O)CC1 [Example 246, 1-(4-((4-(4-(3-(3-(((1-acetylpiperidin-4-yl)amino)methyl)-1-methyl-1H-pyrrolo[2,3-b]pyridin-6-yl)-2-chlorophenyl)-3-chloropyridin-2-yl)-2-methoxybenzyl)amino)piperidin-1-yl)ethan-1-one] | 0.101 µM |
| COc1cc(-c2nccc(-c3cccc(-c4ccc(CN5CCC(NC(C)=O)CC5)c(OC)n4)c3Cl)c2Cl)ccc1CNC[C@@H]1CCC(=O)N1 [Example 357, (S)—N-(1-((6-(2-Chloro-3-(3-chloro-2-(3-methoxy-4-((((5-oxopyrrolidin-2-yl)methyl)amino)methyl)phenyl)pyridin-4-yl)phenyl)-2-methoxypyridin-3-yl)methyl)piperidin-4-yl)acetamide] | 0.0091 µM |
| COC(=O)CN1CCc2cc(-c3nccc(-c4cccc(-c5ccc(CNC[C@@H]6CCC(=O)N6)c(OC)n5)c4Cl)c3Cl)cc(OC)c2C1 [Cmpd 150, methyl (S)-2-(6-(3-chloro-4-(2-chloro-3-(6-methoxy-5-((((5-oxopyrrolidin-2-yl)methyl)amino)methyl)pyridin-2-yl)phenyl)pyridin-2-yl)-8-methoxy-3,4-dihydroisoquinolin-2(1H)-yl)acetate] | 0.127 µM |
| COc1cc(-c2nccc(-c3cccc(-c4ccc(CNC5CCSCC5)c(OC)n4)c3Cl)c2Cl)ccc1CNC1CCSCC1 [Example 484, N-((6-(2-Chloro-3-(3-chloro-2-(3-methoxy-4-(((tetrahydro-2H-thiopyran-4-yl)amino)methyl)phenyl)pyridin-4-yl)phenyl)-2-methoxypyridin-3-yl)methyl)tetrahydro-2H-thiopyran-4-amine] | 0.195 µM |
| CNCc1ccc(C(=O)Nc2cccc(-c3ccnc(-c4ccc(CNC)c(OC)c4)c3Cl)c2C)nc1 [Example 696, N-(3-(3-Chloro-2-(3-methoxy-4-((methylamino)methyl)phenyl)pyridin-4-yl)-2-methylphenyl)-5-((methylamino)methyl)picolinamide] | 0.244 µM |
| COCCC(=O)N1CCC(NCc2ccc(-c3cccc(-c4ccnc(-c5ccc(CN6CC7(CNC(=O)C7)C6)c(OC)c5)c4Cl)c3Cl)nc2OC)CC1 [Example 625, 2-(4-(3-Chloro-4-(2-chloro-3-(6-methoxy-5-(((1-(3-methoxypropanoyl)piperidin-4-yl)amino)methyl)pyridin-2-yl)phenyl)pyridin-2-yl)-2-methoxybenzyl)-2,6-diazaspiro[3.4]octan-7-one] | 0.0208 µM |
| COc1nc(-c2ccnc(-c3cccc4c3CCC[C@@H]4Nc3nc(OC)c(CNC[C@@H]4CCC(=O)N4)cc3C(F)(F)F)c2Cl)ccc1CNC[C@@H]1CCC(=O)N1 [Example 709, (S)-5-((((3′-Chloro-6-methoxy-2′-((S)-5-((6-methoxy-5-(((((S)-5-oxopyrrolidin-2-yl)methyl)amino)methyl)-3-(trifluoromethyl)pyridin-2-yl)amino)-5,6,7,8-tetrahydronaphthalen-1-yl)-[2,4′-bipyridin]-5-yl)methyl)amino)methyl)pyrrolidin-2-one] | ≥ 10 µM |
| COc1nc(-c2cccc(-c3ccnc(-c4cc(OC)c5nc(CN6CCC(F)(F)C6)cn5c4)c3Cl)c2Cl)ccc1CNC1CCN(C(C)=O)CC1 [Example 476, 1-(4-(((6-(2-Chloro-3-(3-chloro-2-(2-((3,3-difluoropyrrolidin-1-yl)methyl)-8-methoxyimidazo[1,2-a]pyridin-6-yl)pyridin-4-yl)phenyl)-2-methoxypyridin-3-yl)methyl)amino)piperidin-1-yl)ethan-1-one] | ≥ 10 µM |
| COc1cc(-c2nccc(-c3cccc(-c4ccc(CNC[C@H](C)O)c(OC)n4)c3Cl)c2C)ccc1CNC[C@H](C)O [Example 274, (S)-1-(((6-(2-Chloro-3-(2-(4-((((S)-2-hydroxypropyl)amino)methyl)-3-methoxyphenyl)-3-methylpyridin-4-yl)-phenyl)-2-methoxypyridin-3-yl)-methyl)-amino)propan-2-ol] | 0.114 µM |
